Consider 2 compounds from publication PMC7427733, “Novel xylose transporter Cs4130 expands the sugar uptake repertoire in recombinant Saccharomyces cerevisiae strains at high xylose concentrations” (Biotechnology for Biofuels, 2020).

For assay [1], the target named is T1, Gxf1 (Sungouiella intermedia, UniProt Q2MDH1).
T1 sequence (Q2MDH1 1-547): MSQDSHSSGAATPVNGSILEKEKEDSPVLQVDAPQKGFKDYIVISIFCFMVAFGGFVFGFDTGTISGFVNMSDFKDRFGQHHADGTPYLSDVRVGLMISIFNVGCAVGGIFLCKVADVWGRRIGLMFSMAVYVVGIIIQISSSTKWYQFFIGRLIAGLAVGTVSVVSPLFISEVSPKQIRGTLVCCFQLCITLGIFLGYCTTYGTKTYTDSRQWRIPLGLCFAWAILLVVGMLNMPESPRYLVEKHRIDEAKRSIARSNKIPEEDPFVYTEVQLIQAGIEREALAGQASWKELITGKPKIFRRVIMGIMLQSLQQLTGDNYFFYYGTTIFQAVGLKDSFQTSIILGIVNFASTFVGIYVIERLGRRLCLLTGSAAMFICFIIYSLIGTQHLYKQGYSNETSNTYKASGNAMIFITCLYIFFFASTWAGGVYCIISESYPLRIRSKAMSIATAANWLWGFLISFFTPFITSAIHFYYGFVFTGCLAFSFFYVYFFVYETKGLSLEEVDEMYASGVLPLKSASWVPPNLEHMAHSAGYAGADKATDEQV
Kind of assay: growth complementation (spot assay) and sugar consumption (HPLC) in transporter-null yeast. The format is cell-based. The settings on record: S. cerevisiae EBY_Xyl1, 30 °C, 20 g/L glucose spot assay; 10 g/L glucose with 10 g/L xylose in fermentation; uptake inferred.

The target in assay [2] is T1, Gxf1. The description is as above. The format is cell-based. The settings on record: S. cerevisiae EBY_Xyl1, 30 °C, xylose 5-50 g/L; uptake inferred.

In the case of `OC[C@H]1OC(O)[C@H](O)[C@@H](O)[C@@H]1O` (some centres unmarked) [glucose], the “growth complementation (spot assay) and sugar consumption (HPLC) in transporter-” value on Gxf1 [1] is “Cs3894 and Gxf1 were able to support better and similar patterns of growth on glucose”. Consider `OC1OC[C@@H](O)[C@H](O)[C@H]1O` (some centres unmarked) [xylose], for which the “growth complementation (spot assay) and sugar consumption (HPLC) in transporter-” value on Gxf1 [2] is “The facilitator Gxf1 restored growth in all xylose concentrations evaluated”.
